Assay results: article PMC9090415, “Discovery of small molecule inhibitors of Plasmodium falciparum apicoplast DNA polymerase” (Journal of Enzyme Inhibition and Medicinal Chemistry, 2022)

Target: P. falciparum apicoplast DNA polymerase (Pf-apPOL) (Plasmodium falciparum, UniProt Q8ILY1)
Test: Fluorescence-based high-throughput DNA polymerase assay (molecular beacon), primary screen and dose-response
Assay type: biochemical
Conditions: for DNA Pol: 90 min, 10 µM; for IC50: supplemental file 2, sheet IC50 nontoxic compounds, Pf-apPOL
Summary of the method: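 Single-point screening used 10 µM compound with 20 nM polymerase, 20 nM hairpin substrate and 6 µM dNTPs for 90 min at 25 °C. Confirmatory titrations (2.5–80 µM) followed fluorescence at three times, and IC50 was derived from a fit including a cooperativity term n.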

[1] = 'DNA Pol' of the 186 hits list (primary screen result), unit not given
[2] = primary screen value of the library well, unit not given

P. falciparum apicoplast DNA polymerase (Pf-apPOL), sequence (Q8ILY1 entry or part of it): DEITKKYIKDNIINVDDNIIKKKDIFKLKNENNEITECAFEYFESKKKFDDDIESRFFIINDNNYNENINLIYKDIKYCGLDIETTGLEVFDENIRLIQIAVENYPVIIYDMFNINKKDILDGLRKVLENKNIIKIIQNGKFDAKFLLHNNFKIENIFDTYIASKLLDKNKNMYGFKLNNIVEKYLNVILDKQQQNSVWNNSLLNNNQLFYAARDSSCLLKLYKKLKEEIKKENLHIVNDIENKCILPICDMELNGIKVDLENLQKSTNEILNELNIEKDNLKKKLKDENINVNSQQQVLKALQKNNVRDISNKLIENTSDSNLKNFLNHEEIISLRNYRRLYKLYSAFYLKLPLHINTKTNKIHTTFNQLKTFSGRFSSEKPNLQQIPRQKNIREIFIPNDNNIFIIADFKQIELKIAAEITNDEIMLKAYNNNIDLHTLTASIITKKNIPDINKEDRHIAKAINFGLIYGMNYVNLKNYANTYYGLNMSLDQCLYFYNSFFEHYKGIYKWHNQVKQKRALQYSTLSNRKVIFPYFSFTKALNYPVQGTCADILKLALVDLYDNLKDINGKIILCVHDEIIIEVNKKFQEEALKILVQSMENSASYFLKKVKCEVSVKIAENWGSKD

SMILES: COc1ccc2c(c1)C(c1ccccc1OC)CC(=O)O2 (stereo not shown) [Molecule 38, COc1ccc2c(c1)C(CC(=O)O2)c1ccccc1OC]
- DNA Pol [1]: 27
- % inhibition Apo pol 10' (DRC-1, concentration 2.5): 10.6274%
- % inhibition Apo pol 10' (DRC-1, concentration 5): 16.1295%
- % inhibition Apo pol 10' (DRC-1, concentration 10): 45.2437%
- % inhibition Apo pol 10' (DRC-1, concentration 20): 76.7316%
- % inhibition Apo pol 10' (DRC-1, concentration 40): 94.6893%
- % inhibition Apo pol 10' (DRC-1, concentration 80): 97.2345%
- % inhibition Apol 90' (DRC-1, 90', concentration 2.5): -7.663%
- % inhibition Apol 90' (DRC-1, 90', concentration 5): -2.39%
- % inhibition Apol 90' (DRC-1, 90', concentration 10): 21.9297%
- % inhibition Apol 90' (DRC-1, 90', concentration 20): 56.4964%
- % inhibition Apol 90' (DRC-1, 90', concentration 40): 89.2946%
- % inhibition Apol 90' (DRC-1, 90', concentration 80): 96.5262%
- % inhibition apPOL 180' (DRC-1, 180', concentration 2.5): -11.4597%
- % inhibition apPOL 180' (DRC-1, 180', concentration 5): -6.316%
- % inhibition apPOL 180' (DRC-1, 180', concentration 10): 13.8407%
- % inhibition apPOL 180' (DRC-1, 180', concentration 20): 46.2939%
- % inhibition apPOL 180' (DRC-1, 180', concentration 40): 87.0263%
- % inhibition apPOL 180' (DRC-1, 180', concentration 80): 96.2979%
- % inhibition Apol 40' (DRC-2, 40', concentration 10 (unit not given)): 27%
- % inhibition ApPOL 90' (DRC-2, 90', concentration 5 (unit not given)): 7%
- % inhibition apPOL 180' (DRC-2, 180', concentration 5 (unit not given)): 7%
- % inhibition Apo pol 5' (DRC-2, concentration 2.5): 6.5%
- % inhibition Apo pol 5' (DRC-2, concentration 5): 27%
- % inhibition Apo pol 5' (DRC-2, concentration 5 (unit not given)): 27%
- % inhibition Apo pol 5' (DRC-2, concentration 10): 41%
- % inhibition Apo pol 5' (DRC-2, concentration 20): 55%
- % inhibition Apo pol 5' (DRC-2, concentration 40): 64%
- % inhibition Apo pol 5' (DRC-2, concentration 80): 69%
- % inhibition Apol 40' (DRC-2, 40', concentration 2.5): -7%
- % inhibition Apol 40' (DRC-2, 40', concentration 5): 10%
- % inhibition Apol 40' (DRC-2, 40', concentration 10): 27%
- % inhibition Apol 40' (DRC-2, 40', concentration 20): 54%
- % inhibition Apol 40' (DRC-2, 40', concentration 40): 72%
- % inhibition Apol 40' (DRC-2, 40', concentration 80): 81%
- % inhibition ApPOL 90' (DRC-2, 90', concentration 2.5): -8%
- % inhibition ApPOL 90' (DRC-2, 90', concentration 5): 7%
- % inhibition ApPOL 90' (DRC-2, 90', concentration 10): 23%
- % inhibition ApPOL 90' (DRC-2, 90', concentration 20): 53%
- % inhibition ApPOL 90' (DRC-2, 90', concentration 40): 74%
- % inhibition ApPOL 90' (DRC-2, 90', concentration 80): 84%
- % inhibition apPOL 180' (DRC-2, 180', concentration 2.5): -3.79%
- % inhibition apPOL 180' (DRC-2, 180', concentration 5): 7%
- % inhibition apPOL 180' (DRC-2, 180', concentration 10): 20%
- % inhibition apPOL 180' (DRC-2, 180', concentration 20): 50%
- % inhibition apPOL 180' (DRC-2, 180', concentration 40): 75%
- % inhibition apPOL 180' (DRC-2, 180', concentration 80): 86%
- DNA Pol [2]: 27

SMILES: COc1ccc2c(c1)C(c1ccccc1OC)CC(=O)O2 (stereo not shown) [Molecule 38]
- IC50: 11.2 µM

SMILES: O=C(Nc1cccc(C(=O)Nc2ccc(S(=O)(=O)[O-])c3cc(S(=O)(=O)[O-])cc(S(=O)(=O)[O-])c23)c1)Nc1cccc(C(=O)Nc2ccc(S(=O)(=O)[O-])c3cc(S(=O)(=O)[O-])cc(S(=O)(=O)[O-])c23)c1.[Na+].[Na+].[Na+].[Na+].[Na+].[Na+] [Molecule 39, O=C(Nc1cccc(c1)C(=O)Nc1ccc(c2c1c(cc(c2)S(=O)(=O)[O-])S(=O)(=O)[O-])S(=O)(=O)[O-])Nc1cccc(c1)C(=O)Nc1ccc(c2c1c(cc(c2)S(=O)(=O)[O-])S(=O)(=O)[O-])S(=O)(=O)[O-].[Na+].[Na+].[Na+].[Na+].[Na+].[Na+]]
- DNA Pol [1]: 94
- % inhibition Apo pol 10' (DRC-1, concentration 2.5): 28.0363%
- % inhibition Apo pol 10' (DRC-1, concentration 5): 43.2303%
- % inhibition Apo pol 10' (DRC-1, concentration 10): 60.7681%
- % inhibition Apo pol 10' (DRC-1, concentration 20): 81.9365%
- % inhibition Apo pol 10' (DRC-1, concentration 40): 96.2832%
- % inhibition Apo pol 10' (DRC-1, concentration 80): 99.222%
- % inhibition Apol 90' (DRC-1, 90', concentration 2.5): -1.332%
- % inhibition Apol 90' (DRC-1, 90', concentration 5): 6.063%
- % inhibition Apol 90' (DRC-1, 90', concentration 10): 22.6686%
- % inhibition Apol 90' (DRC-1, 90', concentration 20): 56.1821%
- % inhibition Apol 90' (DRC-1, 90', concentration 40): 89.9026%
- % inhibition Apol 90' (DRC-1, 90', concentration 80): 98.7402%
- % inhibition apPOL 180' (DRC-1, 180', concentration 2.5): -3.025%
- % inhibition apPOL 180' (DRC-1, 180', concentration 5): 1.181%
- % inhibition apPOL 180' (DRC-1, 180', concentration 10): 16.2132%
- % inhibition apPOL 180' (DRC-1, 180', concentration 20): 51.6229%
- % inhibition apPOL 180' (DRC-1, 180', concentration 40): 87.2271%
- % inhibition apPOL 180' (DRC-1, 180', concentration 80): 98.5627%
- % inhibition Apol 40' (DRC-2, 40', concentration 20 (unit not given)): 56%
- % inhibition ApPOL 90' (DRC-2, 90', concentration 20 (unit not given)): 56%
- % inhibition Apo pol 5' (DRC-2, concentration 2.5): 12%
- % inhibition Apo pol 5' (DRC-2, concentration 5): 23%
- % inhibition Apo pol 5' (DRC-2, concentration 10): 41%
- % inhibition Apo pol 5' (DRC-2, concentration 20): 52%
- % inhibition Apo pol 5' (DRC-2, concentration 40): 59%
- % inhibition Apo pol 5' (DRC-2, concentration 80): 63%
- % inhibition Apol 40' (DRC-2, 40', concentration 2.5): -11%
- % inhibition Apol 40' (DRC-2, 40', concentration 5): 4.26%
- % inhibition Apol 40' (DRC-2, 40', concentration 10): 29%
- % inhibition Apol 40' (DRC-2, 40', concentration 20): 56%
- % inhibition Apol 40' (DRC-2, 40', concentration 40): 75%
- % inhibition Apol 40' (DRC-2, 40', concentration 80): 79%
- % inhibition ApPOL 90' (DRC-2, 90', concentration 2.5): -13%
- % inhibition ApPOL 90' (DRC-2, 90', concentration 5): 1%
- % inhibition ApPOL 90' (DRC-2, 90', concentration 10): 28%
- % inhibition ApPOL 90' (DRC-2, 90', concentration 20): 56%
- % inhibition ApPOL 90' (DRC-2, 90', concentration 40): 78%
- % inhibition ApPOL 90' (DRC-2, 90', concentration 80): 83%
- % inhibition apPOL 180' (DRC-2, 180', concentration 2.5): -3.36%
- % inhibition apPOL 180' (DRC-2, 180', concentration 5): 7.57%
- % inhibition apPOL 180' (DRC-2, 180', concentration 10): 31%
- % inhibition apPOL 180' (DRC-2, 180', concentration 20): 58%
- % inhibition apPOL 180' (DRC-2, 180', concentration 40): 80%
- % inhibition apPOL 180' (DRC-2, 180', concentration 80): 86%
- DNA Pol [2]: 94

SMILES: O=C(Nc1cccc(C(=O)Nc2ccc(S(=O)(=O)O)c3cc(S(=O)(=O)O)cc(S(=O)(=O)O)c23)c1)Nc1cccc(C(=O)Nc2ccc(S(=O)(=O)O)c3cc(S(=O)(=O)O)cc(S(=O)(=O)O)c23)c1 [Molecule 39]
- IC50: 6.77 µM

SMILES: Cc1cccc(-c2nnc3ccc(NS(=O)(=O)c4ccc(C)c(C)c4)nn23)c1 [Molecule 40, Cc1cccc(c1)c1nnc2n1nc(cc2)NS(=O)(=O)c1ccc(c(c1)C)C]
- % inhibition Apo pol 10' (DRC-1, concentration 2.5): 17.5333%
- % inhibition Apo pol 10' (DRC-1, concentration 5): 15.8571%
- % inhibition Apo pol 10' (DRC-1, concentration 10): 58.8718%
- % inhibition Apo pol 10' (DRC-1, concentration 20): 64.4117%
- % inhibition Apo pol 10' (DRC-1, concentration 40): 83.8171%
- % inhibition Apo pol 10' (DRC-1, concentration 80): 87.6455%
- % inhibition Apol 90' (DRC-1, 90', concentration 2.5): 8.645%
- % inhibition Apol 90' (DRC-1, 90', concentration 5): 6.674%
- % inhibition Apol 90' (DRC-1, 90', concentration 10): 42.202%
- % inhibition Apol 90' (DRC-1, 90', concentration 20): 48.6788%
- % inhibition Apol 90' (DRC-1, 90', concentration 40): 74.666%
- % inhibition Apol 90' (DRC-1, 90', concentration 80): 86.8335%
- % inhibition apPOL 180' (DRC-1, 180', concentration 2.5): 2.98%
- % inhibition apPOL 180' (DRC-1, 180', concentration 5): 3.293%
- % inhibition apPOL 180' (DRC-1, 180', concentration 10): 32.359%
- % inhibition apPOL 180' (DRC-1, 180', concentration 20): 37.8584%
- % inhibition apPOL 180' (DRC-1, 180', concentration 40): 67.3017%
- % inhibition apPOL 180' (DRC-1, 180', concentration 80): 87.5255%
- % inhibition Apo pol 5' (DRC-2, concentration 2.5): 5%
- % inhibition Apo pol 5' (DRC-2, concentration 5): 15%
- % inhibition Apo pol 5' (DRC-2, concentration 10): 22%
- % inhibition Apo pol 5' (DRC-2, concentration 20): 26%
- % inhibition Apo pol 5' (DRC-2, concentration 40): 22%
- % inhibition Apo pol 5' (DRC-2, concentration 80): 17%
- % inhibition Apol 40' (DRC-2, 40', concentration 2.5): 4.3%
- % inhibition Apol 40' (DRC-2, 40', concentration 5): 18%
- % inhibition Apol 40' (DRC-2, 40', concentration 10): 30%
- % inhibition Apol 40' (DRC-2, 40', concentration 20): 44%
- % inhibition Apol 40' (DRC-2, 40', concentration 40): 51%
- % inhibition Apol 40' (DRC-2, 40', concentration 80): 53%
- % inhibition ApPOL 90' (DRC-2, 90', concentration 2.5): 3.29%
- % inhibition ApPOL 90' (DRC-2, 90', concentration 5): 17%
- % inhibition ApPOL 90' (DRC-2, 90', concentration 10): 29%
- % inhibition ApPOL 90' (DRC-2, 90', concentration 20): 46%
- % inhibition ApPOL 90' (DRC-2, 90', concentration 40): 57%
- % inhibition ApPOL 90' (DRC-2, 90', concentration 80): 62%
- % inhibition apPOL 180' (DRC-2, 180', concentration 2.5): -0.478%
- % inhibition apPOL 180' (DRC-2, 180', concentration 5): 11%
- % inhibition apPOL 180' (DRC-2, 180', concentration 10): 23%
- % inhibition apPOL 180' (DRC-2, 180', concentration 20): 40%
- % inhibition apPOL 180' (DRC-2, 180', concentration 40): 60%
- % inhibition apPOL 180' (DRC-2, 180', concentration 80): 68%
- % inhibition ApPOL 90' (conc. 5, 90', DRC-2): 17%
- % inhibition Apo pol 5' (conc. 10, DRC-2): 22%
- % inhibition Apo pol 5' (conc. 40, DRC-2): 22%
- % inhibition Apo pol 5' (conc. 80, DRC-2): 17%
- DNA Pol (primary screen value by plate and well): 50
- DNA Pol (primary screen value of the 186 hits, unit not given): 50

SMILES: Cc1cccc(-c2nnc3ccc(NS(=O)(=O)c4ccc(C)c(C)c4)nn23)c1 [Molecule 40]
- IC50: 10.1 µM
